Source: patent US20260285918A1, “PEPTIDE FOR INHIBITING PROTEIN AGGREGATION AND PROTECTING PROTEIN ACTIVITY” (GWANGJU INSTITUTE OF SCIENCE AND TECHNOLOGY, priority 2023, published 2026)

Key:
[1] = test system: LDH (Lactate dehydrogenase); assay: LDH activity protection after dehydration-rehydration and freeze-thaw; assay type: biochemical; details: for LDH activity protection rate: motif added at up to 1/10 of the BSA amount
Description: Specifically, as illustrated in FIG. 6(c), considering the charge, hydrophobicity, and hydrophilicity of each amino acid in the CAHS motif 1 124-142 sequence, Y (Tyr), Q (Gln), E (Glu), V (Val), R (Arg), and L (Leu) in the amino acid sequence of CAHS motif 1, represented by SEQ ID NO: 2, were each mutated to alanine at one site.

[2] = test system: LDH (Lactate dehydrogenase); assay: Inhibition of LDH aggregation (absorption at 340 nm, light scattering) after dehydration-rehydration and freeze-thaw
Description: In other words, protein aggregation is the main cause of loss of protein activity. Protein aggregation is induced during the process of freezing and thawing (freeze and thaw) or in a water-free environment (dehydration), which causes loss of protein activity.

[3] = Solubility comparison after dialysis; assay type: physicochemical; details: 100 μM, dialysed at 4° C. for 18 hours in 20 mM potassium phosphate, 150 mM NaCl, pH 7.0
Procedure: First, CAHS motif 1 124-142 was obtained via peptide synthesis. CAHS motif 1 124-142 and the entire CAHS protein 1-229 were each dialysed at 4° C. for 18 hours in a buffer containing 20 mM potassium phosphate, 150 mM NaCl, pH 7.0, at a concentration of 100 μM, to compare their solubility.

[4] = test system: LDH (Lactate dehydrogenase); assay: LDH activity protection with temperature and time (storage); assay type: biochemical; details: mass ratio 1:50
Procedure: CAHS motif 1 124-142, a stabilizer provided by the present invention, was mixed with LDH (lactate dehydrogenase), a target protein candidate for activity protection experiments, at a mass ratio of 1:50. The LDH protein activity was tested under various temperature and time conditions to determine the degree of protein activity protection.
Specifically, LDH protein activity was tested at temperatures of −20° C., 20° C., and 37° C., and at time intervals of 0, 1, 2, and 4 weeks.

Substance	LDH activity protection rate [1]	LDH aggregation ([2]; dehydration-rehydration)	solubility [3]	LDH activity protection compared between excipients [1]	LDH aggregation ([2]; freeze-thaw)	LDH activity preservation on storage ([4]; 20° C., 1 to 4 weeks)	LDH activity preservation on storage ([4]; 37° C., 1 to 4 weeks)	LDH activity preservation on storage ([4]; all conditions: −20° C., 20° C., 37° C., 0, 1, 2, 4 weeks)	LDH activity preservation on storage ([4]; −20° C., 1 to 4 weeks)
Bovine Serum Albumin [BSA, reference compound]	50-60%	barely prevented aggregation	–	–	–	–	–	–	–
CAHS motif 1 124-142: 19-mer peptide, positions 124 to 142 of the CAHS protein, YRKQQEVEADKIRKELEKQ, obtained via peptide synthesis	70-100%	reduced aggregation by more than half	excellent solubility in water	best protected the activity of the protein	effectively inhibits the aggregation of LDH	well preserved	well preserved	effectively preserve protein activity under all temperature and time conditions	well preserved
